Results reported in patent publication US8158828B2, “Nuclear receptor binding agents” (priority 2005, dated 2012).

Legend:
ER-β = target: T1, ER-β (Rattus norvegicus, UniProt Q62986); assay: ER-β transactivation, ERE-LUC in COS or 293 cells; type: cell-based; parameters: % estardiol activity, ER-β: dose or concentration left out as unconfirmed; conditions: for ER-β LUC expression, compound alone / inhibition of E2-stimulated LUC expression, ER-β: COS or 293 cells; for inhibition of E2-stimulated LUC expression, ER-β: with E2
T1 construct: expressed in transfected cells; host or cells: COS or 293 cells
T1 sequence (Q62986 whole entry): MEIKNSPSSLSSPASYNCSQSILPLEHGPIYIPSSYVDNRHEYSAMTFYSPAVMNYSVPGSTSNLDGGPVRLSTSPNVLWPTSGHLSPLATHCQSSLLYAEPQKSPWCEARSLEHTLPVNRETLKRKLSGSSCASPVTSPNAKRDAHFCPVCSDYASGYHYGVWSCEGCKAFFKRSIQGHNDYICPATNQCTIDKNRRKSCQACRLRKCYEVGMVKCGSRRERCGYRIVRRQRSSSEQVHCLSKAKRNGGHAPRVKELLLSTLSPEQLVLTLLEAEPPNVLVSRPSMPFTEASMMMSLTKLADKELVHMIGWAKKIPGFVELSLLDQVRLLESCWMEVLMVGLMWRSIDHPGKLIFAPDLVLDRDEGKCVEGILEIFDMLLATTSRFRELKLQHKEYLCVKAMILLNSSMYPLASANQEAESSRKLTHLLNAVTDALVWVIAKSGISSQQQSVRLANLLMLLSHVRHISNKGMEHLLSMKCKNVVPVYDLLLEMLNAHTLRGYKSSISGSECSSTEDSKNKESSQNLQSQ

PC-3 cells = assay: Androgen independent prostate cancer cell growth; type: cell-based; conditions: for PC-3 cell growth inhibition: 72 hrs; for PC-3 growth inhibition, qualitative grading: in vitro, data not shown
Protocol: PC-3 cells were plated in RPMI+10% csFBS at 6000 cells per well of a 96 well plate. Medium was changed to RPMI+1% csFBS without phenol red and then treated for 72 hrs with increasing concentrations of SERMs.
The prostate cancer cell line PC-3 was plated in RPMI+10% csFBS at 6000 cells per well of a 96 well plate. Medium was changed to RPMI+1% csFBS without phenol red and cells were treated for 72 hrs with increasing concentrations of SERMs.
PC-3 growth inhibition was determined qualitatively, in vitro, and represented as a grading system based on the ability of the SERMs to inhibit growth. The number −4 is for compounds that induced 100% growth inhibition at 1 uM, −3 for compounds that inhibit growth by about 75-90%, −2 for about 50-70% and −1 for inhibition less than 50% growth.

[1] = Metabolic stability in human liver microsomes; conditions: 1 μM substrate, 0.5 mg/mL microsomes
Protocol: Each substrate or reference control was dissolved at a concentration of 10 mM in DMSO, from which a 5 μM spiking solution was prepared by dilution in water. Substrates (1 μM) were incubated in the presence of human liver microsomes (Xenotech LLC, Kansas City Mo.) at 0.5 mg/mL fortified with an NADPH regenerating system at 37° C. and pH 7.4. The NADPH regenerating system consisted of glucose-6-phosphate dehydrogenase (1 units/mL) in 0.05M K2HPO4. Duplicate incubations were performed in 96-well polypropylene cluster tubes in a final volume of 250 μL per reaction. At 0, 2, 4, 6, 10, 30, and 60 minutes a stop solution (300 μL acetonitrile) was added to aliquots of the reaction mixture. Precipitated protein was removed by centrifugation (3000 rpm for 15 minutes) and the supernatants were transferred to clean 96-well plates for analysis.
The samples were injected onto a Phenomenex Luna hexylphenyl 50×2 mm i.d. 5 uM, column fitted with a guard column. An isocratic mobile phase consisting of 50% acetonitrile and 0.1% formic acid in water was used at a flow rate of 0.3 mL/min. The protonated molecular ion (M+H)^+ of the analyte was monitored by MDS/Sciex API 4000QTrap triple quadrupole mass spectrometer using electrospray positive mode ionization with a temperature of 500° C. and a spray voltage of 4000V. Total analysis time was 1.5 min per sample.
Metabolic stability was defined as the amount of substrate metabolized by the incubation with hepatic microsomes and expressed as a percentage of the initial amount of substrate (% remaining) based on peak area. Initial substrate concentration for each analyte was 1 μM. The initial peak area of each substrate was determined at time zero and metabolic stability was assessed based on the change in analyte peak area from time 0 min to a single fixed timepoint for each sample (2-60 min, representative timepoints are shown in Table 2 below).

Row | SMILES | ER-β LUC expression, compound alone (ER-β) | inhibition of E2-stimulated LUC expression, ER-β (ER-β) | PC-3 cell growth inhibition (PC-3 cells; concentration not given) | PC-3 growth inhibition, qualitative grading (PC-3 cells) | % Remaining 0 min [1] [%] | % Remaining 10 min [1] [%] | % Remaining 30 min [1] [%] | % Remaining 60 min [1] [%] | % estardiol activity, ER-β (ER-β) [%] | PC-3 cell growth inhibition (PC-3 cells; 1 μM) [%]
1 | O=C(c1ccccc1)N(c1ccc(O)cc1)c1ccc(OCCN2CCCCC2)cc1 [Compound 4a, N-(4-hydroxyphenyl)-N-[4-(2-piperidin-1-ylethoxy)-phenyl]-benzamide] | neither 4a nor 4h stimulated LUC expression | inhibited E2-stimulated LUC expression | about 50% | −1 (−1 for inhibition less than 50% growth) | 100 | 105 | 95 | 74 | – | –
2 | Cl.O=C(c1ccc(F)cc1)N(c1ccc(O)cc1)c1ccc(OCCN2CCCCC2)cc1 [Compound 4h, N-(4-hydroxyphenyl)-N-[4-(2-piperidin-1-ylethoxy)-phenyl]-4-fluroro-benzamide hydrochloride] | neither 4a nor 4h stimulated LUC expression | inhibited E2-stimulated LUC expression | – | −2 (−2 for about 50-70%) | 100 | 99 | 86 | 70 | 29.1 | 75
